Entries after “also recorded” stand apart in the source; their conditions may differ. Read-outs that look alike come from different tables or passages of the source.
What was measured:
in vivo = settings: rat
Method: AC-92 was prepared in DMSO and diluted in sterile phosphate buffered saline (final DMSO concentration 1.0%). […] Animals were sacrificed at 3 and 6 hours after dosing via lethal narcosis. Blood was sampled via cardiac puncture. Serum was prepared by allowing whole blood to stand at 4° C. for 60 min; plasma was prepared using heparin as the anti-coagulant. CSF was collected via the foramen magnum immediately after sacrifice. Brain material was collected by opening of the skull and simple excision of the right cortex. Samples were snap frozen using liquid nitrogen immediately after collection. All procedures were conducted in conformity with applicable German and EU laws on animal experimentation and the study was approved by a government appointed ethics committee.
To determine the extent of central exposure, bioavailability studies were undertaken.

hAPP Tg mice (APP751S/L) = assay: Morris Water Maze in hAPP Tg mice; assay type: in vivo, mouse; settings: for probe trial: crossings over the former target position: 1 mg/kg, versus Tween 80 vehicle group; for performance in Morris Water Maze: other concentration of AC-91 (not 1 or 20 mg/kg) or Compounds B
Method: Therefore, mice were treated for 33 days and in the end of the treatment period behavior was evaluated in the Morris Water Maze and additionally a Object Recognition Task.
Female Tg and nTg mice with a C57BL/6×DBA background and an age of 7 months (±2 week) were randomly assigned to treatment groups 1 to 9 (n=20 for groups 3 to 7, n=15 for groups 1, 2, 8 and 9). […] All animals which were used for the present study had dark eyes and were likely to perceive the landmarks outside the MWM pool. However, it had to be excluded that seeing abilities of an animal were poor, which was controlled in the visible platform training, the so called pretest, before treatment start for all animals including reserves enclosed to the study. In case a seeing handicap for a specific animal would have been affirmed, the mouse would have been excluded from the study.
Compounds or vehicle were administered via oral gavage in a daily volume of 10 ml/kg/b.w. for 33 days.
The Morris Water Maze task was conducted in a black circular pool of a diameter of 100 cm. Tap water was filled in with a temperature of 22±1° C. and the pool was virtually divided into four sectors. A transparent platform (8 cm diameter) was placed about 0.5 cm beneath the water surface. During the whole test session, except the pretest, the platform was located in the southwest quadrant of the pool.
One day before the 4 days lasting training session animals had to perform a so called “pre-test” (two 60 sec lasting trials) to ensure that the seeing abilities of each animal were normal. Only animals that fulfilled this task were enclosed to the MWM testing.
In the MWM task, each mouse had to perform three trials on four consecutive days. A single trial lasted for a maximum of one minute. During this time, the mouse had the chance to find the hidden, diaphanous target. If the animal could not find a “way” out of the water, the investigator guided to or placed the mouse on the platform. After each trial mice were allowed to rest on the platform for 10-15 sec.
During this time, the mice had the possibility to orientate in the surrounding. Investigations took place under dimmed light conditions, to prevent the tracking system from negative influences (Kaminski; PCS, Biomedical Research Systems). On the walls surrounding the pool, posters with black, bold geometric symbols (e.g. a circle and a square) were fixed which the mice could use the symbols as landmarks for their orientation.
One swimming group per trial consisted of five to six mice, so that an intertrial time of about five to ten minutes was ensured. For the quantification of escape latency (the time [second]−the mouse needed to find the hidden platform and therefore to escape from the water), of pathway (the length of the trajectory [meter] to reach the target) and of the abidance in the goal quadrant a computerized tracking system was used. The computer was connected to a camera placed above the centre of the pool. The camera detected the signal of the light emitting diode (LED), which was fixed with a little hairgrip on the mouse's tail.
Twenty-four hours after the last trial on day 4 the mice had to fulfil a so-called probe trial. At this time, the platform was removed from the pool and during the one-minute probe trial; the experimenter counted the number of crossings over the former target position. Additionally the abidance in this quadrant as well as the three other quadrants was calculated. Through out this trial a mouse could not get any, howsoever natured, clue from the platform.

[1] = assay type: in vivo; settings: daily oral gavage, 33 days; AC-91 in four different concentrations
Excerpt: In total 171 female hAPP Tg and nTg mice with an age of 6.5 months at treatment start were enclosed to study.

APPPS1 transgenic mice = assay: Plaque load, plaque volume and area in APPPS1 transgenic model for cerebral amyloidosis; assay type: in vivo, mouse; settings: for increase of amyloid load as % of that expected with normal progression of the model: AC-92 after 3 months, AC-91 at month 5; for plaque volume and area smaller than vehicle-treated controls: APPPS1 mice
Method: The transgenic model and corresponding […] analysis of brain sections was provided by Prof. Mathias Jucker, Department of Cellular Neurology, Hertie-Institute for Clinical Brain Research University of Tübingen, Otfried-Müller Strasse 27, D-72076 Tübingen, Germany. APPPS1 transgenic mice express both KM670/671NL mutated human APP and L166P mutated human PS1 under the Thy-1 promoter element (Radde et al., 2005). They were treated with the compounds from the age of 126 days after birth (DAB) to 158 DAB. […] On completion of the dosing period, animals were sacrificed by lethal narcosis followed by collection of blood by cardiac puncture and recovery of brain material for sectioning and extraction of drug and relevant peptides. […] Brains were removed and postfixed at 4° C. in 4% PFA, dehydrated in 30% sucrose, and frozen. Serial coronal serial 40 μm sections were cut with a microtome and collected in cryoprotectant (30% glycerol, 45% ethylene glycol in PBS) and stored at −20° C. until use.
Free-floating sections were processed for immunohistochemistry as described elsewhere (Stalder et al., 2005). Briefly, sections were washed in TBS and blocked with 3% goat or donkey serum (Vector Laboratories Inc., Burlingame, Calif.) in 0.3% Triton-X-100 (Fisher, Fair Lawn, N.J.). The sections were incubated overnight with primary antibodies at 4° C. in 2% serum and 0.3% Triton-X-100, washed three times with TBS and incubated for 3 hours with biotin-conjugated secondary antibodies. After repeated TBS washing, sections were stained by complexing with SG blue (Vectastain ABC elite kit; Vector Laboratories). Sections were mounted on precleaned glass microscope slides (Superfrost® Plus; Langenbrinck, Teningen, Germany), dehydrated with an alcohol series, cleared in xylene and coverslipped in a xylene soluble mounting medium (Pertex®, medite GmbH, Burgdorf, Germany). Amyloid load was estimated on every 12th section throughout the entire neocortex.
In vivo experiments were performed using a very aggressive double transgenic mouse model for cerebral amyloidosis (Radde et al., 2006). APPPS1 transgenic mice expressing both KM670/671NL mutated human APP and L166P mutated human PS1 under the Thy-1 promoter element (Radde et al., 2005) were treated with the compounds from the age of 126 days after birth (DAB) to 158 DAB. Mice were treated as described in A3. above. On completion of the dosing period, samples were taken from the animals and snap frozen using liquid nitrogen as reported herein previously (see Section A3. above).
In the model, plaque load in the brain is known to increase roughly exponentially with age (Radde et al., 2005). […] These conditions should be suitable to provide insight, whether initial formation of plaques or downstream processes reversing existing plaque loads are involved in corresponding drug effects.

[2] = ACI-91 and ACI-92 levels in plasma, CSF and brain homogenates of transgenic mice; assay type: in vivo, mouse; settings: for concentration in brain as % of plasma concentration / Kp at 33 days: 100 mg/kg ACI-91 or 50 mg/kg ACI-92, 33 days; for Kp at 33 days: mouse, brain homogenate, oral, read-out: concentration in brain as % of plasma concentration
Method: Determination of ACI-91 and ACI-92 in mouse plasma, CSF and brain homogenate samples was done by HPLC-MS/MS by Quality Assistance SA, Technoparc de Thudinie 2, B-6536 Donstiennes, Belgium.
The amounts of ACI-91 and of ACI-92 in plasma, CSF and in brain homogenates is determined after treatment of hAPP single transgenic mice (JSW, Graz) and hAPP-PS1 double-transgenic mice (Synovo, Tübingen), respectively, for 33 days with doses of 1, 5, 20 and 100 mg/kg of ACI-91 and 50 mg/kg ACI-92 and doses of 100 mg/kg of ACI-91 and 50 mg/kg ACI-92, respectively.

**Q.** Which results are given for CN1CCN(CC(=O)N2c3ccccc3C(=O)Nc3cccnc32)CC1 [AC-91, pirenzepine]?
**A.** half-life (in vivo; male, Lewis, po): ~12 h; escape latency in Morris Water Maze (hAPP Tg mice (APP751S/L); 1 mg/kg daily oral, 33 days): reduced relatively to the historic group; probe trial: crossings over the former target position (hAPP Tg mice (APP751S/L)): significantly (p<0.05) more often; probe trial: crossings over the former target position (hAPP Tg mice (APP751S/L); listed as formula II): significantly more often; escape latency in Morris Water Maze (hAPP Tg mice (APP751S/L); 20 mg/kg daily oral, 33 days): comparable escape latency to the ntg vehicle treated mice; also recorded: reduced relatively to the historic group; escape latency in Morris Water Maze (hAPP Tg mice (APP751S/L); 20 mg/kg daily oral, 33 days, listed as formula II): comparable escape latency to the non transgenic vehicle treated mice; memory performance (hAPP Tg mice (APP751S/L); dose escalation to 100 mg/kg): didn't improve memory performance; performing the Morris Water Maze task compared to the historic group (hAPP Tg mice (APP751S/L); hAPP Tg mice, 33 days): led to an improvement; performance in Morris Water Maze (hAPP Tg mice (APP751S/L)): weak performance similar to that observed in the historic tg group

**Q.** Which “tolerability of the treatment” value [1] does the source give for O=C1Nc2cccnc2Nc2ccccc21 [AC-92, LS-75] here?
**A.** Its value is “well tolerated”.

**Q.** And the “increase of amyloid load as % of that expected with normal progression of the model” value (APPPS1 transgenic mice)?
**A.** The value was 55%.

**Q.** And the “increase of amyloid load as % of that expected with normal progression of the model” value (APPPS1 transgenic mice; listed as formula III)?
**A.** Its value is “about 60%”.

**Q.** And the “plaque volume and area smaller than vehicle-treated controls” value (APPPS1 transgenic mice; month 2-3)?
**A.** The value was “about 26%”.

**Q.** And the “plaque volume and area smaller than vehicle-treated controls” value (APPPS1 transgenic mice; month 4-5)?
**A.** Its value is “about 26%”.

**Q.** And the β-amyloid plaque load (APPPS1 transgenic mice; daily p.o. 50 mg/kg AC-92 or 100 mg/kg AC-91 for one month, between months 1 and 5 after birth)?
**A.** The β-amyloid plaque load was “substantial reductions”.

**Q.** And the amyloid load (APPPS1 transgenic mice; treated animals after 3 months, 50 mg/kg daily p.o.)?
**A.** The amyloid load was 0.61%.

**Q.** And the “concentration in brain as % of plasma concentration” value ([2]; 4 months old double transgenic mice)?
**A.** Its value is “about 5%”.

**Q.** And the “concentration in CSF as % of plasma concentration” value ([2]; 4 months old double transgenic mice, listed as ACI92)?
**A.** The value was 20%.

**Q.** And the “concentration in brain as % of plasma concentration” value ([2]; 8 months old single transgenic mice)?
**A.** The value was 11%.

**Q.** And the Kp at 33 days ([2]; hAPP single transgenic, 8 months old single transgenic mice)?
**A.** The Kp at 33 days was roughly 0.11.

**Q.** And the Kp at 33 days ([2]; hAPP-PS1 double-transgenic, 4 months old double transgenic mice)?
**A.** The Kp at 33 days was roughly 0.05.

**Q.** And the Kp (in vivo; male, Lewis, ip, 50 mg/kg)?
**A.** The Kp was roughly 0.25.

**Q.** And the concentration at 3 h (in vivo; male, Lewis, po, 50 mg/kg)?
**A.** The concentration at 3 h was roughly 20 nM.

**Q.** What about the concentration at 6 h (in vivo; male, Lewis, po, 50 mg/kg) of the same compound?
**A.** The concentration at 6 h was roughly 75 nM.

**Q.** What about the “enrichment in the brain” value (in vivo; po) of the same compound?
**A.** The value was “enriched in the brain to a certain extent”.

**Q.** What about the “Morris Water Maze / probe trial versus Tween 80 vehicle mice” value (hAPP Tg mice (APP751S/L); AC-92 treated mice) of the same compound?
**A.** Its value is “no difference to the Tween 80 mice”.

**Q.** And the “performance in Morris Water Maze” value (hAPP Tg mice (APP751S/L))?
**A.** Its value is “weak performance similar to that observed in the historic tg group”.

**Q.** With O=C1Nc2cccnc2N(C(=O)CN2CCNCC2)c2ccccc21 [des-methyl-AC-91] as the compound, how does the “detection in CSF” value (in vivo; po, 50 mg/kg) read?
**A.** Its value is “No AC-91 or dm-AC-91 was detected”.

From patent US20100247688A1 (priority 2007, published 2010)
